Series [1] relates to MCP-1. Kind of series: cytokine inhibition in LPS-activated macrophages, ELISA (MCP-1). Type of series: cell-based. The note with it: 10 nM. As for the experimental part:
(§1) In cell culture studies, macrophages were activated to secrete cytokines such as MMP-9 and MCP-1 by treating the cells to E Coli lippopolysaccharide (LPS). Inhibition of these cytokines upon treatment of the activated macrophages with Myolimus and rapamycin with 10 nM concentration was tested using ELISA assay.
For orientation: An ELISA detects its analyte on a solid surface through an enzyme-linked reagent.

For series [2], the system named is human smooth muscle cell. Description: in vitro human smooth muscle cell culture testing, incorporated thymidine. Type of series: cell-based. The note with it: exposure for 8 hours, concentrations 0.0001-1 μM. As for the experimental part: The amounts of incorporated thymidine for samples of Myolimus of varying concentrations (0.0001, 0.001, 0.01, 0.1, and 1 μM) and of rapamycin of varying concentrations (0.0001, 0.001, 0.01, 0.1, and 1 μM) were measured after exposure for 8 hours (as shown in FIG. 1). The IC50 of both Myolimus and Rapamycin was 0.1 nM indicating potent anti-proliferative properties.

In series [3] the test system is MMP-9. Description: cytokine inhibition in LPS-activated macrophages, ELISA (MMP-9). Type of series: cell-based. Conditions: 10 nM. As for the experimental part:
as §1

The conditions of series [4]: in vivo; cited from earlier work.
The conditions of series [5]: cited from earlier work.

The term IC50 denotes the concentration at which inhibition is half-maximal.

As for `CO[C@H]1C[C@@H]2CC[C@@H](C)[C@@](O)(O2)C(=O)C(=O)N2CCCC[C@H]2C(=O)O[C@H]([C@H](C)C[C@@H]2CC[C@@H](O)[C@H](OC)C2)CC[C@H](C)/C=C(\C)[C@@H](O)[C@@H](OC)C(=O)[C@H](C)C[C@H](C)/C=C/C=C/C=C/1C` [Myolimus, 32-deoxorapamycin], the “production of MCP-1” value is on record as “reduced the production” in series [1] and “inhibiting the production” in series [1] (listed as myolimus). In series [2], the 50% inhibitory concentration (IC50) turned out to be 100 pM. In addition, the “production of MMP-9” value in series [3] is “reduced the production”; in series [3] (listed as myolimus), “inhibiting production”.
In the case of `CO[C@H]1C[C@@H]2CC[C@@H](C)[C@@](O)(O2)C(=O)C(=O)N2CCCC[C@H]2C(=O)O[C@H]([C@H](C)C[C@@H]2CC[C@@H](O)[C@H](OC)C2)CC(=O)[C@H](C)/C=C(\C)[C@@H](O)[C@@H](OC)C(=O)[C@H](C)C[C@H](C)/C=C/C=C/C=C/1C` [Rapamycin], the “production of MCP-1” value in series [1] is given as “did not have any impact”. For the same compound, in series [4], the bioavailability result is “very low and variable”. The IC50 in series [2] is 100 pM. Also, in series [5], the solubility in water entry is “only very slightly soluble”. Moreover, the “production of MMP-9” value in series [3] was “increased the production”.

The record behind these values is US20160175288A1, “MACROCYCLIC LACTONE COMPOUNDS AND METHODS FOR THEIR USE” (Elixir Medical Corporation, priority 2008, published 2016).
